The source of these data is patent US20090123940A1, “MOLECULES INVOLVED IN SYNAPTOGENESIS AND USES THEREFOR” (THE JOHNS HOPKINS UNIVERSITY, priority 2007, published 2009).

The subject of assay [1] is surface GluR1 / surface LFC-NPR. The experiment in a line: Cell surface biotinylation of cultured cortical neurons. In kind it is cell-based. Conditions: for surface LFC-NPR: cultured cortical neurons after DHPG treatment. The method, then: Cell Surface Biotinylation. Surface biotinylation of GluR1 at the plasma membrane was described previously (Snyder et al., Nat Neurosci 4:1079-85, 2001) with some modifications. Cultured cortical neurons were treated with DHPG for 5 minutes. Medium was then replaced with previously cultured medium. After 45 minutes, neurons were cooled on ice and washed with cold PBS containing 1 mM CaCl2 and 0.5 mM MgCl2 (PBS++). Cell surface proteins were labeled with cell-impermeable EZ-Link Sulfo-NHS-SS-Biotin (sulfosuccinimidyl-2-(biotinamido)ethyl-1,3-dithiopropionate; Pierce) in PBS^++ (1 mg/mL) at 4° C. for 30 min. Unreacted biotin was quenched by washing cells with cold 100 mM Glycine (pH 7.4). Cultures were lysed using RIPA buffer and homogenates were centrifuged at 13, 200 rpm to remove debris. 10% of the homogenates were used for total protein. 90% of the remaining homogenates were incubated with immobilized NeutrAvidin beads (Pierce). After washing with RIPA buffer, bound proteins were eluted with 2× Laemmli sample buffer supplemented with 2% β-ME. The eluted proteins were subjected to SDS-PAGE and Western blotting followed by ECL (Amersham Biosciences) and exposure to autoradiography film. Primary antibody concentrations were as follows: GluR1N at 0.12 μg/mL and β-actin at 1:1000. Quantification performed on digital images scanned from exposure matched autoradiographs. Densitometric analysis of these digital images was performed using ImageJ software (Version 1.33, National Institutes of Health). Significance was determined by paired Student's T-test.

Assay [2] deals with Purkinje cells cultured from embryonic mouse cerebellum. The assay is described as follows: LTD of glutamate-evoked inward current in cultured Purkinje cells (glutamate test pulses paired with depolarizing steps). In kind it is cell-based. The settings on record: t=40 min; TAPI-2 10 μM, GM6001 1 μM, GM6001 control compound 1 μM; n=7. Here is the method:
(§1) Recording and Ca^2+ imaging in cerebellar cultures. Cultures of embryonic mouse cerebellum were prepared as previously described and recordings were performed according to our previously published method (Leitges et al., Neuron 44:585-94, 2004). […]. Test pulses were delivered using negative current pulses (300-700 nA, 30-80 msec duration). LTD-inducing pairing stimuli consisted of six, 3-s-long depolarizations to 0 mV, each delivered together with a test pulse of glutamate.
(§2) Membrane currents were recorded with an Axopatch 200A amplifier, and digitized at 10 kHz for exogenous glutamate responses and 20 kHz for mEPSCs. Signals were lowpass filtered at 5 kHz (1 kHz for mEPSCs) and acquired using Axograph X software (Axograph Scientific, Sydney, Australia). Recordings in which Rinput or Rseries varied by more than 10% were excluded from the analysis. For analysis of mEPSCs, Axograph X mini analysis software was used. This detected events based on closeness of fit of the mEPSC to a sliding template. Events smaller than − ? 4 pA were discarded. A separate template was created for each recording by averaging 30 of its most unambiguous mEPSCs as selected by eye.
Other studies have shown that LTD in Purkinje cells cultured from embryonic mouse cerebellum requires activation of mGluR1, and is expressed postsynaptically as a reduction in surface AMPA receptors (Chung et al., Science 300:1751-5, 2003; Leitges et al., Neuron 44:585-94, 2004; Linden, PNAS 98:14066-71, 2001; Matsuda et al., EMBO J. 19:2765-74, 2000; Steinberg et al., Neuron 49:845-60, 2006; Wang and Linden, Neuron 25:635-47, 2000). Here, LTD was examined using a purely postsynaptic model in which iontophoretic test pulses of glutamate are applied to voltage-clamped Purkinje cells in culture. Following a baseline recording period, LTD was induced by pairing six 3 sec long depolarizing steps to 0 mV with six glutamate test pulses. When test pulses were resumed after pairing, LTD of the glutamate-evoked inward current was evident (52±9.0% of baseline at t=40 min, n=7 cells, FIG. 6A). […]

Assay [3] has as its system cultured cerebellar Purkinje cells. The experiment in a line: Basal electrophysiological properties and Ca2+ imaging in cultured cerebellar Purkinje cells. Conditions: TAPI-2 10 μM; GM6001 1 μM; GM6001 control 1 μM; mean ± SEM. In kind it is cell-based, mouse. The method, then:
as §1, §2
Bis-Fura-2 ratio imaging of intracellular free Ca^2+ in the dendritic shafts of cultured Purkinje cells was accomplished by measuring the background corrected fluorescence ratio at 340 and 380 nm excitation using a cooled CCD camera system. In these experiments, EGTA was removed from the internal saline and replaced with 100 μM bis-Fura-2.

In assay [4] the test system is NPR cleavage at Site A (TACE). The assay is described as follows: NPR cleavage assay in transfected HEK293T cells. It is filed as cell-based, rat. The settings on record: TAPI-2 50 μM; GM6001 25 μM. The method, then:
Cleavage Assay HEK293T cells were plated in OptiMEM (Invitrogen, Carlsbad, Calif.) containing 5% FBS onto 6-well dishes at a density of 4×10^5 cells/mL (2 mL/well) 1 day before transfection. Cells were transfected with NPR in pRK5 using LipofectAMINE 2000 (Invitrogen, Carlsbad Calif.). After 24 hr the medium was replaced with serum-free OptiMEM. […] Samples from each well were obtained at specific time points, immediately placed on ice, centrifuged at 15,000 g to remove cell debris, and then treated with 2% β-mercaptoethanol containing loading buffer. At the end of the time course, the cells were lysed with RIPA buffer, centrifuged to remove cell debris, and treated with 2% β-mercaptoethanol in loading buffer. Samples (20 μL of medium or lysate diluted to 1/5) were run on SDS-PAGE gels and analyzed by Western blotting.

The mark [5] stands for this setting: TAPI-2 = pretreatment before DHPG.
The mark [6] stands for this setting: cultured cortical neurons, 45 min after DHPG treatment, TAPI-2 = pretreatment before DHPG.

In the case of `N[C@H](C(=O)O)c1cc(O)cc(O)c1` [DHPG, (S)-3,5-dihydroxyphenylglycine], the “surface LFC-NPR” value in assay [1] (setting [5]) is 84.3±7.2 % of vehicle control. The “surface GluR1” value in assay [1] (setting [6]) was 74.1±2.2 % of vehicle control; in assay [1] (neurons cultured from NP TKO mouse cortex, after DHPG), 98.4±9.7 % of vehicle control; in assay [1] (neurons cultured from control mouse cortex, 45 min after DHPG), 46.3±8.3 % of vehicle control.
As to `CC(C)C[C@H](CC(=O)NO)C(=O)N[C@H](C(=O)N[C@@H](C)C(=O)NCCN)C(C)(C)C` [TAPI-2], the “glutamate-evoked inward current after LTD induction” value in assay [2] is reported as 112±8.6 % of baseline. Further, in assay [3], the “DHPG-evoked (dendritic Ca2+ transient)” value was 231 ± 35 nM, the “Depol-evoked (dendritic Ca2+ transient)” value was 604 ± 89 nM, the “Resting Ca2+” value was determined as 109 ± 22 nM and the “mEPSC 10-90% rise” value was 1.8 ± 0.4 msec. Also, in assay [3], the “mEPSC 50% decay” value turned out to be 7.7 ± 0.6 ms and the mEPSC amp is 27 ± 7 pA. The “surface LFC-NPR” value in assay [1] (setting [5]) is listed as 108.9±16.0 % of vehicle control. Besides, the “surface GluR1” value in assay [1] (setting [6]) is 102.4±4.9 % of vehicle control. For the same molecule, the “PMA-stimulated cleavage at Site A / secretion of LFC-NPR into the medium” value in assay [4] was “inhibited”.
